Literature values as cited in US11197842B2 (BIOGEN MA INC., priority 2014, dated 2021).
Counter-ions that a name gives are not always drawn.

Conditions: species not stated

half-life of MMF: approximately 1 hour
Structure (SMILES): COC(=O)/C=C/C(=O)O [MMF, monomethyl fumarate]
